We go through 17 molecules from patent US9181259B2 (LEO PHARMA A/S, priority 2012, dated 2015).

One data set has as its target T1, NK1 receptor (Homo sapiens, UniProt P25103).
T1 construct: Measurement of NK1 Receptor Mediated Intracellular [Ca^2+]; Mobilization in U251 MG Cells Using FLIPR; endogenous in cells; host or cells: U251 MG cells
As to the kind of experiment: NK1 receptor mediated intracellular [Ca2+] mobilization in U251 MG cells using FLIPR. To be noted: antagonist potency against Substance P (EC80), normalized to 100 nM Aprepitant, read-out: U251MG (FLIPR pIC50) (converted). It is filed as cell-based. An outline of the steps:
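Fluo-4-loaded U251 MG cells were preincubated with compound (0.5% DMSO final), with any agonist effect read for 5 min, then 10 min more at 37 °C before Substance P at EC80. Peak FLIPR fluorescence change was read, and IC50 came from a four-parameter fit as the midpoint between fitted top and bottom.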

The nature of data set [1]: Hepatic intrinsic clearance following incubation in human liver microsomes. It is filed as in vitro ADME. Conditions: NADPH regenerating system, 0-30 min, 37 °C. As for the experimental part:
Hepatic Extraction Ratio from Hepatic Intrinsic Clearance Following Incubation in Human Liver Microsomes
The general procedure consists of an automated incubation system and LC-MS/MS analysis with human liver microsomes. Human liver microsomes are thawed rapidly in a waterbath at 37° C. and kept on ice until use. The human liver microsomes are diluted with 50 mM potassium phosphate buffer pH 7.4 to a protein concentration of 0.55 mg/mL. Test compounds and positive controls (Verapamil and Dextromethorphan, positive controls for CYP3A4 for CYP2D6 isoforms, respectively) are dissolved in methanol (or other appropriate solvent, if necessary) in order to obtain a 5 mM solution which is further diluted to the concentration of 50 μM. The stock solutions are prepared immediately before the test.
5 μL of 50 μM test compounds and controls are added to 445 μL-of the 0.55 mg/mL microsomes solution and the incubation mixture are pre-warmed at 37° C. for 5 minutes.
The incubation reactions are initiated by adding 50 μL of pre-warmed NADPH regenerating system to the incubation mixtures. 50 μL-aliquots will be taken from the incubation mixtures at: 0, 3, 6, 9, 15 and 30 minutes and the reactions are stopped by adding 100 μL of ACN containing Rolipram, used as generic Internal Standard (1S). Samples are then diluted with 120 μL of Milli-Q water and centrifuged at 3000 rpm for 10 minutes, prior the LC-MS/MS analysis.
The integrated peak areas for test compounds at the selected time points are divided by the respective peak areas of the IS and the percent of parent remaining is calculated by normalizing the peak area ratio of parent to IS at 0 min. Observed rate constant (kobs) for parent degradation is calculated by determining the slope of the line of the graph of the natural log of percentage parent remaining versus time of incubation. From the rate of depletion (min-1) and volume of the incubation (mL), clearance is estimated. This is scaled for the protein in the incubation relative to that in the intact liver, for all species (mL/min/g liver).
Values for the Human in vitro Clint are expressed as mL/min/g liver.
Assuming a liver weight of 25.7 g/kg and a liver blood flow of 20.7 mL/min/kg, the hepatic extraction ratio, Eh, can be derived from the Human in vitro Clint:
E.g. a Human in vitro Clint of 2.4 mL/min/g liver corresponds to a hepatic extraction ratio of 75%.
Some compounds of the present invention were tested according to example 121.
On the technique in general: Liver microsomes are a subcellular fraction often used to study metabolism.

Counter-ions that a name gives are not always drawn.

T1 sequence (P25103 whole entry): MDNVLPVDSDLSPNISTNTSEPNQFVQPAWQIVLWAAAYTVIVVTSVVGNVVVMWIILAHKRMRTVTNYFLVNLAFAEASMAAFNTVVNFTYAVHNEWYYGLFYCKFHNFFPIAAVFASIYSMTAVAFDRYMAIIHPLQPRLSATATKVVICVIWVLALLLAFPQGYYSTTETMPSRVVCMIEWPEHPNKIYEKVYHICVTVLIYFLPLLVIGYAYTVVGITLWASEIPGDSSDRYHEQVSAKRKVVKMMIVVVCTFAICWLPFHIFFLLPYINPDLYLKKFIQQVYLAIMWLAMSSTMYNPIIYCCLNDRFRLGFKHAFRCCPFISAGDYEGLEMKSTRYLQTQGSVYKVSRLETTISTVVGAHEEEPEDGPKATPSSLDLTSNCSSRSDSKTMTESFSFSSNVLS

Turning to `Cc1ccccc1[C@H]1[C@@H]2CC(CCO)(CCO)C(=O)N2CCN1C(=O)N(C)[C@H](CO)c1cc(F)cc(C(F)(F)F)c1` [Compound 94, (1S,8aS)-N-((S)-1-(3-fluoro-5-(trifluoromethyl)phenyl)-2-hydroxyethyl)-7,7-bis(2-hydroxyethyl)-N-methyl-6-oxo-1-o-tolylhexahydropyrrolo[1,2-a]pyrazine-2(1H)-carboxamide], the IC50 on NK1 receptor is 0.0501 nM. For the same molecule, in data set [1], the “Human in vitro Clint (mL/min/g liver)” value was found to be 3.4 mL/min/g liver.
The like results for `Cc1cc([C@@H](C)N(C)C(=O)N2CCN3C(=O)C4(CCOCC4)C[C@H]3[C@@H]2c2ccccc2C)cc(C(F)(F)F)c1` [Compound 101] were, in that order, 0.0251 nM and 6.9 mL/min/g liver.
The corresponding values for `Cc1cc([C@@H](C)N(C)C(=O)N2CCN3C(=O)C(CCO)(CCO)C[C@H]3[C@@H]2c2ccccc2C)cc(C(F)(F)F)c1` [Compound 85, (1S,8aS)-7,7-bis(2-hydroxyethyl)-N-methyl-N-((R)-1-(3-methyl-5-(trifluoromethyl)phenyl)ethyl)-6-oxo-1-o-tolylhexahydropyrrolo[1,2-a]pyrazine-2(1H)-carboxamide] are 0.0794 nM and 17 mL/min/g liver.
The corresponding values for `Cc1cc([C@@H](C)N(C)C(=O)N2CCN3C(=O)CC[C@H]3[C@@H]2c2ccccc2C)cc(C(F)(F)F)c1` [Compound 107, (1S,8aS)-N-methyl-N-((R)-1-(3-methyl-5-(trifluoromethyl)phenyl)ethyl)-6-oxo-1-o-tolylhexahydropyrrolo[1,2-a]pyrazine-2(1H)-carboxamide] are 0.107 nM and 9.2 mL/min/g liver.
On to `Cc1ccccc1[C@H]1[C@@H]2CC(CCO)(CCO)C(=O)N2CCN1C(=O)N(C)[C@@H](C)c1cc(C(F)(F)F)cc(C(F)(F)F)c1` [Compound 99, (1S,8aS)-N-((S)-1-(3,5-bis(trifluoromethyl)phenyl)ethyl)-7,7-bis(2-hydroxyethyl)-N-methyl-6-oxo-1-o-tolylhexahydropyrrolo[1,2-a]pyrazine-2(1H)-carboxamide], for which, at NK1 receptor, the IC50 was 0.166 nM. In data set [1], the “Human in vitro Clint (mL/min/g liver)” value is 5.4 mL/min/g liver.
For the molecule `Cc1ccccc1C1C2CC(CO)C(=O)N2CCN1C(=O)N(C)Cc1cc(C(F)(F)F)cc(C(F)(F)F)c1` (single isomer, unassigned) [Compound 22, N-{[3,5-bis(trifluoromethyl)phenyl]methyl}-7-(hydroxymethyl)-N-methyl-1-(2-methylphenyl)-6-oxo-octahydropyrrolo[1,2-a]piperazine-2-carboxamide], the IC50 on NK1 receptor was 0.0513 nM. Besides, the “Human in vitro Clint (mL/min/g liver)” value in data set [1] is reported as 0.8 mL/min/g liver.
The like results for `Cc1cc(CN(C)C(=O)N2CCN3C(=O)C(CCO)(CCO)C[C@H]3[C@@H]2c2ccccc2C)cc(C(F)(F)F)c1` [Compound 77, (1S,8aS)-7,7-bis(2-hydroxyethyl)-N-methyl-N-(3-methyl-5-(trifluoromethyl)benzyl)-6-oxo-1-o-tolylhexahydropyrrolo[1,2-a]pyrazine-2(1H)-carboxamide] were, in that order, 0.0631 nM and 15 mL/min/g liver.
With `Cc1ccccc1[C@H]1[C@@H]2CC(CCO)(CCO)C(=O)N2CCN1C(=O)N(C)[C@H](C)c1cc(C(F)F)cc(C(F)(F)F)c1` [Compound 97, (1S,8aS)-N-((R)-1-(3-(difluoromethyl)-5-(trifluoromethyl)phenyl)ethyl)-7,7-bis(2-hydroxyethyl)-N-methyl-6-oxo-1-o-tolylhexahydropyrrolo[1,2-a]pyrazine-2(1H)-carboxamide], the IC50 at NK1 receptor is 0.0501 nM. Further, the “Human in vitro Clint (mL/min/g liver)” value in data set [1] is 14 mL/min/g liver.
The like results for `Cc1ccccc1[C@H]1[C@@H]2CC3(CCN(C)CC3)C(=O)N2CCN1C(=O)N(C)[C@H](C)c1cc(C(F)(F)F)cc(C(F)(F)F)c1` [Compound 105, (1′S,8a′S)-N-((R)-1-(3,5-bis(trifluoromethyl)phenyl)ethyl)-N,1-dimethyl-6′-oxo-1′-o-tolyltetrahydro-1′H-spiro[piperidine-4,7′-pyrrolo[1,2-a]pyrazine]-2′(6′H)-carboxamide, formic acid salt] were, in that order, 0.24 nM and 1.2 mL/min/g liver.
On to `Cc1ccccc1C1C2CC(CN3CCOCC3)C(=O)N2CCN1C(=O)N(C)Cc1cc(C(F)(F)F)cc(C(F)(F)F)c1` (single isomer, unassigned) [Compound 41], for which, on NK1 receptor, the IC50 is 0.224 nM. Also, the “Human in vitro Clint (mL/min/g liver)” value in data set [1] came out at 2.9 mL/min/g liver.
The like results for `Cc1cc([C@@H](CO)N(C)C(=O)N2CCN3C(=O)C(CCO)(CCO)C[C@H]3[C@@H]2c2ccccc2C)cc(C(F)(F)F)c1` [Compound 111, (1S,8aS)-N-((S)-2-hydroxy-1-(3-methyl-5-(trifluoromethyl)phenyl)ethyl)-7,7-bis(2-hydroxyethyl)-N-methyl-6-oxo-1-o-tolylhexahydropyrrolo[1,2-a]pyrazine-2(1H)-carboxamide] were, in that order, 0.0617 nM and 3.7 mL/min/g liver.
Consider `Cc1ccccc1[C@H]1[C@@H]2CC(CCO)(CCO)C(=O)N2CCN1C(=O)N(C)Cc1cc(Cl)cc(C(F)(F)F)c1` [Compound 79, (1S,8aS)-N-(3-chloro-5-(trifluoromethyl)benzyl)-7,7-bis(2-hydroxyethyl)-N-methyl-6-oxo-1-o-tolylhexahydropyrrolo[1,2-a]pyrazine-2(1H)-carboxamide], for which the IC50 on NK1 receptor is 0.105 nM. In addition, the “Human in vitro Clint (mL/min/g liver)” value in data set [1] is recorded as 14 mL/min/g liver.
The like results for `Cc1ccccc1[C@H]1[C@@H]2CC(CCO)(CCO)C(=O)N2CCN1C(=O)N(C)[C@@H](C)c1cc(F)cc(C(F)(F)F)c1` [Compound 92, (1S,8aS)-N-((S)-1-(3-fluoro-5-(trifluoromethyl)phenyl)ethyl)-7,7-bis(2-hydroxyethyl)-N-methyl-6-oxo-1-o-tolylhexahydropyrrolo[1,2-a]pyrazine-2(1H)-carboxamide] were, in that order, 0.0158 nM and 11 mL/min/g liver.
For the molecule `Cc1ccccc1C1C2CC(CCO)(CCO)CN2CCN1C(=O)N(C)Cc1cc(C(F)(F)F)cc(C(F)(F)F)c1` (single isomer, unassigned) [Compound 66, N-{[3,5-bis(trifluoromethyl)phenyl]methyl}-7,7-bis(2-hydroxyethyl)-N-methyl-1-(2-methylphenyl)-octahydropyrrolo[1,2-a]piperazine-2-carboxamide], the IC50 at NK1 receptor was 0.0794 nM. Besides, the “Human in vitro Clint (mL/min/g liver)” value in data set [1] is reported as 4.2 mL/min/g liver.
The corresponding values for `Cc1ccccc1C1C2CC3(CCN(C)CC3)C(=O)N2CCN1C(=O)N(C)Cc1cc(C(F)(F)F)cc(C(F)(F)F)c1` (racemic) [Compound 45, N-{[3,5-bis(trifluoromethyl)phenyl]methyl}-N,1-dimethyl-4′-(2-methylphenyl)-1′-oxo-hexahydro-1′H-spiro[piperidine-4,2′-pyrrolo[1,2-a]piperazine]-5′-carboxamide] are 0.166 nM and 1.9 mL/min/g liver.
Consider `COc1cc([C@@H](C)N(C)C(=O)N2CCN3C(=O)C(CCO)(CCO)C[C@H]3[C@@H]2c2ccccc2C)cc(C(F)(F)F)c1` [Compound 91, (1S,8aS)-7,7-bis(2-hydroxyethyl)-N-((R)-1-(3-methoxy-5-(trifluoromethyl)phenyl)ethyl)-N-methyl-6-oxo-1-o-tolylhexahydropyrrolo[1,2-a]pyrazine-2(1H)-carboxamide], for which, on NK1 receptor, the IC50 is 0.0631 nM. Moreover, the “Human in vitro Clint (mL/min/g liver)” value in data set [1] was 8.5 mL/min/g liver.
The corresponding values for `COc1cc([C@@H](CO)N(C)C(=O)N2CCN3C(=O)C(CCO)(CCO)C[C@H]3[C@@H]2c2ccccc2C)cc(C(F)(F)F)c1` [Compound 95, (1S,8aS)-N-((S)-2-hydroxy-1-(3-methoxy-5-(trifluoromethyl)phenyl)ethyl)-7,7-bis(2-hydroxyethyl)-N-methyl-6-oxo-1-o-tolylhexahydropyrrolo[1,2-a]pyrazine-2(1H)-carboxamide] are 0.155 nM and 2.1 mL/min/g liver.
